Measured values published in patent US20260347373A1, “HETEROCYCLIC COMPOUNDS, COMPOSITIONS THEREOF, AND METHODS OF TREATMENT THEREWITH” (BeOne Medicines I GmbH, priority 2023, published 2026).
Read-outs that look alike come from different tables or passages of the source.

Key:
WT KRAS = WT KRAS (Homo sapiens, UniProt P01116); assay: KRAS WT Probe Displacement Assay (TR-FRET, GDP-loaded); type: binding
Source text: (§1) The synthetic routes of probe 1 and 2, which have been disclosed in PCT/CN2022/070676, are hereby incorporated herein.

KRAS G12D = KRAS G12D (Homo sapiens, UniProt P01116, G12D); assay: KRAS G12D Probe Displacement Assay (TR-FRET, GDP-loaded); type: binding
Source text: as §1

[1] = KRAS WT, read-out: KRAS^WT Probe Displacement Assay IC50
[2] = KRAS G12D, read-out: KRAS^G12D Probe Displacement Assay IC50
[3] = KRAS^WT Probe Displacement Assay IC50, KRAS WT
[4] = KRAS^G12D Probe Displacement Assay IC50, KRAS G12D

Chain of KRAS G12D (P01116 1-188 isoform P01116-2 G12D): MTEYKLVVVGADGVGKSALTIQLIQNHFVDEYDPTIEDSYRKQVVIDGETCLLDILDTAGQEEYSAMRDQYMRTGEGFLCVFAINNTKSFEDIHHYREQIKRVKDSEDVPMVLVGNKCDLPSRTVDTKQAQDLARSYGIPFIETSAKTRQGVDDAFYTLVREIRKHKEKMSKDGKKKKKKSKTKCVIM
Chain of WT KRAS (P01116 1-188 isoform P01116-2): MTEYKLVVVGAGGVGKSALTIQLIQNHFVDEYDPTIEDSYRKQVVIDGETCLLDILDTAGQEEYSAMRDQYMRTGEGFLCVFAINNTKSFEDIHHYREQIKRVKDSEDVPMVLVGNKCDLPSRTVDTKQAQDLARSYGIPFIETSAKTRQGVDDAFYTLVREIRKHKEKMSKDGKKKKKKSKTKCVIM

SMILES | IC50 (WT KRAS; [1]) [nM] | IC50 (KRAS G12D; [2]) [nM] | IC50 (WT KRAS; [3]) [nM] | IC50 (KRAS G12D; [4]) [nM]
Cc1cc(N)cc(-c2nc3c4c(nc(OCC5(C6CCCN6C)CC5)nc4c2F)N2C[C@H]4CC[C@H](N4)[C@H]2CCO3)c1C(F)(F)F (mixture of isomers) [Example 63, 3-((6aR,7S,10R)-1-fluoro-13-((1-(1-methylpyrrolidin-2-yl)cyclopropyl)methoxy)-5,6,6a,7,8,9,10,11-octahydro-4-oxa-3,11a,12,14,15-pentaaza-7,10-methanocyclohepta[4,5]cycloocta[1,2,3-de]naphthalen-2-yl)-5-methyl-4-(trifluoromethyl)aniline] | 3 to 1000 | < 0.3 | – | –
Cc1cc(N)cc(-c2nc3c4c(nc(OCC5(CN6CCC7(C6)CC7(F)F)CC5)nc4c2F)N2C[C@H]4CC[C@H](N4)[C@H]2CCO3)c1C(F)(F)F (mixture of isomers) [Example 90, 3-((6aR,7S,10R)-13-((1-((1,1-difluoro-5-azaspiro [2.4]heptan-5-yl)methyl)cyclopropyl)methoxy)-1-fluoro-5,6,6a,7,8,9,10,11-octahydro-4-oxa-3, 11a,12,14,15-pentaaza[7,10]methanocyclohepta[4,5]cycloocta[1,2,3-de]naphthalen-2-yl)-5-methyl-4-(trifluoromethyl)aniline] | 0.3 to 3 | < 0.3 | – | –
Cc1cc(N)cc(-c2nc3c4c(nc(OCC5(CN6CCC(O)(C(F)(F)F)C6)CC5)nc4c2F)N2C[C@H]4CC[C@H](N4)[C@H]2CCO3)c1C(F)(F)F (mixture of isomers) [Example 92, 1-((1-((((6aR,7S, 10R)-2-(5-amino-3-methyl-2-(trifluoromethyl)phenyl)-1-fluoro-5,6,6a,7,8,9,10,11-octahydro-4-oxa-3,11a,12,14,15-pentaaza-7,10-methanocyclohepta [4,5]cycloocta[1,2,3-de]naphthalen-13-yl)oxy)methyl)cyclopropyl)methyl)-3-(trifluoromethyl) pyrrolidin-3-ol] | 3 to 1000 | < 0.3 | – | –
Cc1cc(N)cc(-c2nc3c4c(nc(OCC5(CN6CC7CC7(CO)C6)CC5)nc4c2F)N2C[C@H]4CC[C@H](N4)[C@H]2CCO3)c1C(F)(F)F (mixture of isomers) [Example 99, (3-((1-((((6aR,7S,10R)-2-(5-amino-3-methyl-2-(trifluoromethyl)phenyl)-1-fluoro-5,6,6a,7,8,9,10,11-octahydro-4-oxa-3,11a,12,14,15-pentaaza-7,10-methanocyclohepta [4,5]cycloocta [1,2,3-de]naphthalen-13-yl)oxy)methyl)cyclopropyl)methyl)-3-azabicyclo[3.1.0]hexan-1-yl)methanol] | 0.3 to 3 | < 0.3 | – | –
Cc1cc(N)cc(-c2nc3c4c(nc(OCC5(CN6CCCC(C)(O)C6)CC5)nc4c2F)N2C[C@H]4CC[C@H](N4)[C@H]2CCO3)c1C(F)(F)F (mixture of isomers) [Example 116, 1-((1-((((6aR,7S, 10R)-2-(5-amino-3-methyl-2-(trifluoromethyl)phenyl)-1-fluoro-5,6,6a,7,8,9,10,11-octahydro-4-oxa-3,11a,12,14,15-pentaaza-7,10-methanocyclohepta [4,5]cycloocta [1,2,3-de]naphthalen-13-yl)oxy)methyl)cyclopropyl)methyl)-3-methylpiperidin-3-ol] | 3 to 1000 | 0.3 to 3 | – | –
CN1CCN(C)C(C)(COc2nc3c4c(nc(-c5cc(N)cc(Cl)c5C(F)(F)F)c(F)c4n2)OCC[C@@H]2[C@@H]4CC[C@H](CN32)N4)C1 (single isomer, unassigned) [Example 3] | 3 to 1000 | < 0.3 | – | –
Cc1cc(N)cc(-c2nc3c4c(nc(OCC5(C)CN(C)CCN5C)nc4c2F)N2C[C@H]4CC[C@H](N4)[C@H]2CCO3)c1C(F)(F)F (single isomer, unassigned) [Example 4] | 3 to 1000 | < 0.3 | – | –
Cc1cc(N)cc(-c2nc3c4c(nc(OCC5(CN(C)C)CC5(F)F)nc4c2F)N2C[C@H]4CC[C@H](N4)[C@H]2CCO3)c1C(F)(F)F (single isomer, unassigned) [Example 17] | 3 to 1000 | < 0.3 | – | –
COC1CN(CC2(COc3nc4c5c(nc(-c6cc(N)cc(C)c6C(F)(F)F)c(F)c5n3)OCC[C@@H]3[C@@H]5CC[C@H](CN43)N5)CC2(F)F)C1 (single isomer, unassigned) [Example 20] | – | – | 3 to 1000 | < 0.3
Cc1cc(N)cc(-c2nc3c4c(nc(OCC5(CN6C[C@@H](C)O[C@@H](C)C6)CC5(F)F)nc4c2F)N2C[C@H]4CC[C@H](N4)[C@H]2CCO3)c1C(F)(F)F (single isomer, unassigned) [Example 22] | 3 to 1000 | < 0.3 | – | –
Cc1cc(N)cc(-c2nc3c4c(nc(OCC5(CN6CC(C)OC(C)C6)CC5(F)F)nc4c2F)N2C[C@H]4CC[C@H](N4)[C@H]2CCO3)c1C(F)(F)F (single isomer, unassigned) [Example 24] | 3 to 1000 | 0.3 to 3 | – | –
Cc1cc(N)cc(-c2nc3c4c(nc(OCC5(CN6C[C@H](C)O[C@@H](C)C6)CC5(F)F)nc4c2F)N2C[C@H]4CC[C@H](N4)[C@H]2CCO3)c1C(F)(F)F (single isomer, unassigned) [Example 26] | 3 to 1000 | 0.3 to 3 | – | –
Cc1cc(N)cc(-c2nc3c4c(nc(OCC5(CN6CC7CC7C6)CC5(F)F)nc4c2F)N2C[C@H]4CC[C@H](N4)[C@H]2CCO3)c1C(F)(F)F (single isomer, unassigned) [Example 28] | 3 to 1000 | < 0.3 | – | –
Cc1cc(N)cc(-c2nc3c4c(nc(OCC5(C)COCC5N(C)C)nc4c2F)N2C[C@H]4CC[C@H](N4)[C@H]2CCO3)c1C(F)(F)F (single isomer, unassigned) [Example 42] | 3 to 1000 | 0.3 to 3 | – | –
CN(C)CC1(COc2nc3c4c(nc(-c5cc(N)cc(Cl)c5C(F)(F)F)c(F)c4n2)OCC[C@@H]2[C@@H]4CC[C@H](CN32)N4)CC1F (single isomer, unassigned) [Example 52] | 0.3 to 3 | < 0.3 | – | –
Cc1cc(N)cc(-c2nc3c4c(nc(OCC5(CN6CCC6)CC5(F)F)nc4c2F)N2C[C@H]4CC[C@H](N4)[C@H]2CCO3)c1C(F)(F)F (single isomer, unassigned) [Example 57] | 3 to 1000 | 0.3 to 3 | – | –
Cc1cc(N)cc(-c2nc3c4c(nc(OCC5(C(C)N(C)C)CC5(F)F)nc4c2F)N2C[C@H]4CC[C@H](N4)[C@H]2CCO3)c1C(F)(F)F (single isomer, unassigned) [Example 59] | 3 to 1000 | < 0.3 | – | –
CO[C@H]1CCN(C)[C@@H]1C(C)Oc1nc2c3c(nc(-c4cc(N)cc(C)c4C(F)(F)F)c(F)c3n1)OCC[C@@H]1[C@@H]3CC[C@H](CN21)N3 (single isomer, unassigned) [Example 75] | 3 to 1000 | < 0.3 | – | –
Cc1cc(N)cc(-c2nc3c4c(nc(OCC5(CN6CCCC6CO)CC5)nc4c2F)N2C[C@H]4CC[C@H](N4)[C@H]2CCO3)c1C(F)(F)F (single isomer, unassigned) [Example 124] | 3 to 1000 | 0.3 to 3 | – | –
Cc1cc(N)cc(-c2nc3c4c(nc(OCC5(C6CCCN6C)CC5)nc4c2F)N2C[C@H]4CC[C@H](N4)[C@H]2CCO3)c1C(F)(F)F (single isomer, unassigned) [Example 133] | 3 to 1000 | < 0.3 | – | –
Cc1cc(N)cc(-c2nc3c4c(nc(OCC5(CN(C)C)CC5F)nc4c2F)N2C[C@H]4CC[C@H](N4)[C@H]2CCO3)c1C(F)(F)F (single isomer, unassigned) [Example 136] | – | – | 3 to 1000 | < 0.3
Cc1cc(N)cc(-c2nc3c4c(nc(OCC5(CN6CCC7(C6)CC7(F)F)CC5)nc4c2F)N2C[C@H]4CC[C@H](N4)[C@H]2CCO3)c1C(F)(F)F (single isomer, unassigned) [Example 138] | 0.3 to 3 | < 0.3 | – | –
CO[C@@H]1C[C@@H](C(C)Oc2nc3c4c(nc(-c5cc(N)cc(C)c5C(F)(F)F)c(F)c4n2)OCC[C@@H]2[C@@H]4CC[C@H](CN32)N4)N(C)C1 (single isomer, unassigned) [Example 144] | 3 to 1000 | < 0.3 | – | –
COC1CN(CC2(COc3nc4c5c(nc(-c6cc(N)cc(C)c6C(F)(F)F)c(F)c5n3)OCC[C@@H]3[C@@H]5CC[C@H](CN43)N5)CC2)CC1F (single isomer, unassigned) [Example 186] | 3 to 1000 | < 0.3 | – | –
Cc1cc(N)cc(-c2nc3c4c(nc(OCC56C=CCN5C[C@H](F)C6)nc4c2F)N2C[C@H]4CC[C@H](N4)[C@H]2CCO3)c1C(F)(F)F (single isomer, unassigned) [Example 204] | 3 to 1000 | < 0.3 | – | –
Cc1cc(N)cc(-c2nc3c4c(nc(O[C@@H](C)[C@@H]5CC6(CN5C)CC6(F)F)nc4c2F)N2C[C@H]4CC[C@H](N4)[C@H]2CCO3)c1C(F)(F)F (single isomer, unassigned) [Example 224] | 3 to 1000 | < 0.3 | – | –
Cc1cc(N)cc(-c2nc3c4c(nc(O[C@@H](C)[C@@H]5CCCN5C5CCOC5)nc4c2F)N2C[C@H]4CC[C@H](N4)[C@H]2CCO3)c1C(F)(F)F (single isomer, unassigned) [Example 228] | 3 to 1000 | < 0.3 | – | –
Cc1cc(N)cc(-c2nc3c4c(nc(OCC5(C)CC(F)CN(C6CCOCC6)C5)nc4c2F)N2C[C@H]4CC[C@H](N4)[C@H]2CCO3)c1C(F)(F)F (single isomer, unassigned) [Example 232] | 0.3 to 3 | < 0.3 | – | –
Cc1cc(N)cc(-c2nc3c4c(nc(OCC5(C)CC(F)CN(C6CCOCC6)C5)nc4c2F)N2C[C@H]4CC[C@H](N4)[C@H]2CCO3)c1C(F)(F)F (single isomer, unassigned) [Example 233] | 3 to 1000 | 0.3 to 3 | – | –
Cc1cc(N)cc(-c2nc3c4c(nc(OCC5(C)CC(F)CN(C6CCOCC6)C5)nc4c2F)N2C[C@H]4CC[C@H](N4)[C@H]2CCO3)c1C(F)(F)F (single isomer, unassigned) [Example 234] | 3 to 1000 | 0.3 to 3 | – | –
